# Measurements reported in patent publication US20170305922A1, “CARM1 INHIBITORS AND USES THEREOF” (Epizyme, Inc., priority 2014, published 2017).
# Tested on: asymmetric di-methyl PABP1 in RKO cells
# Test: RKO methylation assay: In Cell Western (ICW) for asymmetric di-methyl PABP1 (PABP1me2a)
# Details: Cellular-based (PABP1me2a) ICW (In Cell Western) assay, 48 hours
# Method in brief: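 In-cell western on compound-exposed RKO cells (48 hours): asymmetric di-methyl PABP1 detected by antibody at 800 nm, DNA content by DRAQ5 at 700 nm. Percent inhibition from signal ratios against DMSO (minimum) and 20 μM reference compound (maximum) wells; IC50 curves fitted from triplicates.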
row,IC50,SMILES
1,45.5 nM,CNC[C@@H](O)COc1ccc(Cl)c(-c2nc(-c3c(C)noc3C)c(C)c(N3CC4(CC(OC(C)C)C4)C3)n2)c1 [Example 260]

# Same assay, conditions: Homo sapiens, RKO, 48 h, Cellular-based (PABP1me2a) ICW (In Cell Western) assay
row,IC50,SMILES
1,90.9 nM,CNC[C@@H](O)COc1ccc(Cl)c(-c2nc(-c3c(C)noc3C)c(C)c(N3CC4(CCC(OC)C4)C3)n2)c1 (some centres unmarked) [Example 263]
2,51.9 nM,CNC[C@@H](O)COc1ccc(Cl)c(-c2nc(-c3c(C)noc3C)c(C)c(N3CC4(CN(CCC(F)(F)F)C4)C3)n2)c1 [Example 264]
3,87.7 nM,CNC[C@@H](O)COc1ccc(Cl)c(-c2nc(-c3c(C)c(Cl)nn3C)c(C)c(N3CC4(CN(C(=O)OC)C4)C3)n2)c1 [Example 265]
4,310 nM,CNC[C@@H](O)COc1ccc(Cl)c(-c2nc(-c3c(Br)cnn3C)c(C)c(N3CC4(CN(C(=O)OC)C4)C3)n2)c1 [Example 266]
5,121 nM,CNC[C@@H](O)COc1ccc(Cl)c(-c2nc(-c3c(Br)cnn3C)c(C)c(N3CC4(CN(CC(F)(F)F)C4)C3)n2)c1 [Example 267]
6,1350 nM,CNC[C@@H](O)COc1ccc(Cl)c(-c2nc(-c3c(C)noc3C)c(C)c(N3CC4(CC(N5CCC5)C4)C3)n2)c1 [Example 268]
7,355 nM,CNC[C@@H](O)COc1ccc(Cl)c(-c2nc(-c3c(C)noc3C)c(C)c(N3CC4(CC(N5CC(OC)C5)C4)C3)n2)c1 [Example 269]
8,269 nM,CNC[C@@H](O)COc1ccc(Cl)c(-c2nc(-c3c(C)noc3C)c(C)c(N3CC4(CC(N5CCOCC5)C4)C3)n2)c1 [Example 270]
9,89.1 nM,CNC[C@@H](O)COc1ccc(Cl)c(-c2nc(-c3c(C)noc3C)c(C)c(N3CC4(CC(N(C)CC(F)(F)F)C4)C3)n2)c1 [Example 271]

# Continued, molecule first:
row,SMILES,IC50
1,CNC[C@@H](O)COc1ccc(Cl)c(-c2nc(-c3c(C)noc3C)c(C)c(N3Cc4ccc(OCCOC)nc4C3)n2)c1 [Example 249],27 nM
2,CNC[C@@H](O)COc1ccc(Cl)c(-c2nc(-c3c(C)noc3C)c(C)c(N3CC4(CCC4(F)F)C3)n2)c1 [Example 250],217 nM
3,CNC[C@@H](O)COc1ccc(Cl)c(-c2nc(-c3c(C)noc3C)c(C)c(N3CC(C)(COC)C3)n2)c1 [Example 251],193 nM
4,CNC[C@@H](O)COc1ccc(Cl)c(-c2nc(-c3c(C)noc3C)c(C)c(N3CC(C)(CO)C3)n2)c1 [Example 252],561 nM
5,CNC[C@@H](O)COc1ccc(Cl)c(-c2nc(-c3c(C)noc3C)c(C)c(N3Cc4ccc(O[C@@H]5CCOC5)nc4C3)n2)c1 [Example 253],29.2 nM
6,CNC[C@@H](O)COc1ccc(Cl)c(-c2nc(-c3c(C)noc3C)c(C)c(N3Cc4ccc(O[C@H]5CCOC5)nc4C3)n2)c1 [Example 254],37.1 nM
7,CNC[C@@H](O)COc1ccc(Cl)c(-c2nc(-c3c(C)noc3C)c(C)c(N3CC4(CN(C(=O)OCCOC)C4)C3)n2)c1 [Example 255],377 nM
8,CNC[C@@H](O)COc1ccc(Cl)c(-c2nc(-c3c(C)c(Br)nn3C)c(C)c(N3CC4(CC(OC)C4)C3)n2)c1 [Example 256],43.2 nM
9,CNC[C@@H](O)COc1ccc(Cl)c(-c2nc(-c3c(C)noc3C)c(C)c(N3CC4=C(CN(C(=O)OC)CC4)C3)n2)c1 [Example 257],22.7 nM
10,CNC[C@@H](O)COc1ccc(Cl)c(-c2nc(-c3c(C)noc3C)c(C)c(N3Cc4ccc(N(C)C)nc4C3)n2)c1 [Example 258],29.9 nM
11,CNC[C@@H](O)COc1ccc(Cl)c(-c2nc(-c3c(C)noc3C)c(C)c(N3Cc4ccc(N5CC(F)C5)nc4C3)n2)c1 [Example 259],22.9 nM
12,CNC[C@@H](O)COc1ccc(Cl)c(-c2nc(-c3c(C)noc3C)c(C)c(N3Cc4cccnc4C3)n2)c1 [Example 262],32.6 nM

# Biological target: T1, Human CARM1 (PRMT4) (Homo sapiens, UniProt Q86X55)
# T1 construct: Flag-CARM1-His was eluted with 200 ug/ml FLAG peptide in buffer A; made in house; host or cells: HEK 293F cells infected with recombinant baculovirus (pFastBacMam)
# T1 sequence (Q86X55 1-585 isoform Q86X55-1): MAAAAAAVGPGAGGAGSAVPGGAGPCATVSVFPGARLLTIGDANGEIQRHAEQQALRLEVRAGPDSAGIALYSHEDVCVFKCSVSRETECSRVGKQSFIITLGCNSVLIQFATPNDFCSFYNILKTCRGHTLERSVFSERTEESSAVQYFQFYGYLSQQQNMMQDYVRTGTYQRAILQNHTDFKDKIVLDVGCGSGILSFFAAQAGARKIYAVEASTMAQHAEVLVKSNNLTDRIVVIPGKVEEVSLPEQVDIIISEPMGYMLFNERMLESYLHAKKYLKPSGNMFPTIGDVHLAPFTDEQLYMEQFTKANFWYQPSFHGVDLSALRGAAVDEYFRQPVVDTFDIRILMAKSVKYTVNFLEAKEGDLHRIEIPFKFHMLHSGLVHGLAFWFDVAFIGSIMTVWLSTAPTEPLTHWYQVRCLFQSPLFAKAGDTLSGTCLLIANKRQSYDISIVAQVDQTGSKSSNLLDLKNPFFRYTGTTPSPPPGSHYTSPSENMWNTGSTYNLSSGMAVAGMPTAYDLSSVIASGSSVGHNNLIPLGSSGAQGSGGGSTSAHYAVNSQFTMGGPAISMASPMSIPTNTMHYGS
# Test: CARM1 enzyme assay on peptide substrates (3H-SAM Flashplate)
# Details: Biochemical assay; CARM1 0.25 nM, 3H-SAM 30 nM, peptide 250 nM; read-out: Biochem IC50
row,IC50,SMILES
1,5.36 nM,CNC[C@@H](O)COc1ccc(Cl)c(-c2nc(-c3c(C)noc3C)c(C)c(N3CC4(CCC(OC)C4)C3)n2)c1 (some centres unmarked) [Example 263]
2,4.11 nM,CNC[C@@H](O)COc1ccc(Cl)c(-c2nc(-c3c(C)noc3C)c(C)c(N3CC4(CN(CCC(F)(F)F)C4)C3)n2)c1 [Example 264]
3,4.2 nM,CNC[C@@H](O)COc1ccc(Cl)c(-c2nc(-c3c(C)c(Cl)nn3C)c(C)c(N3CC4(CN(C(=O)OC)C4)C3)n2)c1 [Example 265]
4,6.83 nM,CNC[C@@H](O)COc1ccc(Cl)c(-c2nc(-c3c(Br)cnn3C)c(C)c(N3CC4(CN(C(=O)OC)C4)C3)n2)c1 [Example 266]
5,8.97 nM,CNC[C@@H](O)COc1ccc(Cl)c(-c2nc(-c3c(Br)cnn3C)c(C)c(N3CC4(CN(CC(F)(F)F)C4)C3)n2)c1 [Example 267]
6,1.26 nM,CNC[C@@H](O)COc1ccc(Cl)c(-c2nc(-c3c(C)noc3C)c(C)c(N3CC4(CC(N5CCC5)C4)C3)n2)c1 [Example 268]
7,0.8 nM,CNC[C@@H](O)COc1ccc(Cl)c(-c2nc(-c3c(C)noc3C)c(C)c(N3CC4(CC(N5CC(OC)C5)C4)C3)n2)c1 [Example 269]
8,4.95 nM,CNC[C@@H](O)COc1ccc(Cl)c(-c2nc(-c3c(C)noc3C)c(C)c(N3CC4(CC(N5CCOCC5)C4)C3)n2)c1 [Example 270]
9,7.42 nM,CNC[C@@H](O)COc1ccc(Cl)c(-c2nc(-c3c(C)noc3C)c(C)c(N3CC4(CC(N(C)CC(F)(F)F)C4)C3)n2)c1 [Example 271]

# Continued, molecule first:
row,SMILES,IC50
1,CNC[C@@H](O)COc1ccc(Cl)c(-c2nc(-c3c(C)noc3C)c(C)c(N3Cc4ccc(OCCOC)nc4C3)n2)c1 [Example 249],2 nM
2,CNC[C@@H](O)COc1ccc(Cl)c(-c2nc(-c3c(C)noc3C)c(C)c(N3CC4(CCC4(F)F)C3)n2)c1 [Example 250],3.94 nM
3,CNC[C@@H](O)COc1ccc(Cl)c(-c2nc(-c3c(C)noc3C)c(C)c(N3CC(C)(COC)C3)n2)c1 [Example 251],6.51 nM
4,CNC[C@@H](O)COc1ccc(Cl)c(-c2nc(-c3c(C)noc3C)c(C)c(N3CC(C)(CO)C3)n2)c1 [Example 252],8.01 nM
5,CNC[C@@H](O)COc1ccc(Cl)c(-c2nc(-c3c(C)noc3C)c(C)c(N3Cc4ccc(O[C@@H]5CCOC5)nc4C3)n2)c1 [Example 253],2.36 nM
6,CNC[C@@H](O)COc1ccc(Cl)c(-c2nc(-c3c(C)noc3C)c(C)c(N3Cc4ccc(O[C@H]5CCOC5)nc4C3)n2)c1 [Example 254],2.39 nM
7,CNC[C@@H](O)COc1ccc(Cl)c(-c2nc(-c3c(C)noc3C)c(C)c(N3CC4(CN(C(=O)OCCOC)C4)C3)n2)c1 [Example 255],7.22 nM
8,CNC[C@@H](O)COc1ccc(Cl)c(-c2nc(-c3c(C)c(Br)nn3C)c(C)c(N3CC4(CC(OC)C4)C3)n2)c1 [Example 256],3.96 nM
9,CNC[C@@H](O)COc1ccc(Cl)c(-c2nc(-c3c(C)noc3C)c(C)c(N3CC4=C(CN(C(=O)OC)CC4)C3)n2)c1 [Example 257],2.4 nM
10,CNC[C@@H](O)COc1ccc(Cl)c(-c2nc(-c3c(C)noc3C)c(C)c(N3Cc4ccc(N(C)C)nc4C3)n2)c1 [Example 258],1.83 nM
11,CNC[C@@H](O)COc1ccc(Cl)c(-c2nc(-c3c(C)noc3C)c(C)c(N3Cc4ccc(N5CC(F)C5)nc4C3)n2)c1 [Example 259],2.17 nM
12,CNC[C@@H](O)COc1ccc(Cl)c(-c2nc(-c3c(C)noc3C)c(C)c(N3CC4(CC(OC(C)C)C4)C3)n2)c1 [Example 260],5.95 nM
13,CNC[C@@H](O)COc1ccc(Cl)c(-c2nc(-c3c(C)noc3C)c(C)c(N3Cc4cccnc4C3)n2)c1 [Example 262],2.34 nM
